System: MV-4-11 cells
Test: Gene expression microarray analysis (Affymetrix PrimeView) and GSEA
Type: cell-based, human
Settings: gene FGFR1OP, FGFR1 oncogene partner; Azacitidine 1 mM; LIST F

Compound: Nc1ncn([C@@H]2O[C@H](CO)[C@@H](O)[C@H]2O)c(=O)n1 [azacitidine]
- RFU, FGFR1OP (ProbeSet 11751329_s_at): 410.33 RFU

Reference: paper PMC5218480 (PLoS ONE, 2017)
